These results are taken from patent US20240166646A1, “1H-PYRROLO[2,3-B]PYRIDINE DERIVATIVES AS BCL-2 INHIBITORS FOR THE TREATMENT OF NEOPLASTIC AND AUTOIMMUNE DISEASES” (Newave Pharmaceutical Inc., priority 2020, published 2024).

Where a name gives a salt, the structure may show the parent alone.

One test addresses Bcl-2 (Homo sapiens (Human), UniProt P10415). Put plainly: Bcl-2 competition binding (fluorescence polarization) assay. The conditions noted are these: fluorescein labeled BH3 peptide 15 nM, Bcl-2 protein 30 nM, 3 hours of incubation at room temperature. The method, boiled down: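 Fluorescence polarization competition of 15 nM labeled 23-mer BH3 peptide with 30 nM purified Bcl-2, in 20 mM Hepes pH 7.0, 50 mM KCl, 5 mM MgCl2, 20 mM Na2MoO4, 0.1 mg/ml bovine gamma globulin, 0.01% NP40. Compounds 20 μM to 2 nM final; mP read after 3 h at room temperature, background-subtracted. IC50 from sigmoidal dose-response fit.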
In general terms: In fluorescence polarisation assays a small probe gives low polarisation when free and higher when bound to something large.

For test [1], the system named is BCL-2-dependent acute lymphoblastic leukemia (ALL) cell line RS4; 11 with G101V mutation. Put plainly: In vitro anti-proliferation assay (ATPlite) in RS4; 11 with G101V mutation. The class given is cell-based. Particulars: about 72 hours incubation, medium with 5% FBS or 10% normal human serum, ATPlite luminescence. The method, boiled down: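 About 1×10^4 cells per well exposed to a compound dose range for about 72 h in medium with 5% FBS or 10% normal human serum. ATP content read by ATPlite luminescence after lysis. IC50 derived from dose-response.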
(Cellular ATP, detected with luciferase, serves as a proxy for viable cell number.)

Chain of Bcl-2 (P10415 whole entry): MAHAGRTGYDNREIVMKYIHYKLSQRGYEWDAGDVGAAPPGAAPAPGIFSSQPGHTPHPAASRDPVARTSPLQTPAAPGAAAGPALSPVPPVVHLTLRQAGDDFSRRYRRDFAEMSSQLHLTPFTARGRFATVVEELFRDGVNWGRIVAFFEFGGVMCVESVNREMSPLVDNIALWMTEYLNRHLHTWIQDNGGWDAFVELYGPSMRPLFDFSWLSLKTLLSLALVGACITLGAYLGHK

On to `CC(C)c1cc(F)ccc1[C@@H]1CCCN1C1CC2(CCN(c3ccc(C(=O)NS(=O)(=O)c4ccc(NCC5CCOCC5)c([N+](=O)[O-])c4)c(N4c5cc6cc[nH]c6nc5O[C@@H]5COC[C@H]54)c3)CC2)C1` [Example 60, 2-[(11R,15S)-13,16-dioxa-2,4,10-triazatetracyclo[7.7.0.0^{3,7}.0^{11,15}]hexadeca-1(9),2,5,7-tetraen-10-yl]-4-{2-[(2S)-2-(4-fluoro-2-isopropylphenyl)pyrrolidin-1-yl]-7-azaspiro[3.5]nonan-7-yl}-N-{3-nitro-4-[(oxan-4-ylmethyl)amino]benzenesulfonyl}benzamide], for which the IC50 on Bcl-2 was 0.341 nM; in test [1], 62.4 nM.

On to `CC(C)Oc1ccccc1[C@@H]1CCCN1C1CC2(CCN(c3ccc(C(=O)NS(=O)(=O)c4ccc(NCC5(F)CCOCC5)c([N+](=O)[O-])c4)c(N4c5cc6cc[nH]c6nc5O[C@@H]5COC[C@H]54)c3)CC2)C1` [Example 42, N-((4-(((4-fluorotetrahydro-2H-pyran-4-yl)methyl)amino)-3-nitrophenyl)sulfonyl)-4-(2-((S)-2-(2-isopropoxyphenyl)pyrrolidin-1-yl)-7-azaspiro[3.5]nonan-7-yl)-2-((5aR,8aS)-5a,6,8,8a-tetrahydrofuro[3,4-b]pyrrolo[3′,2′:5,6]pyrido[3,2-e][1,4]oxazin-5(1H)-yl)benzamide], for which the half-inhibitory concentration (IC50) was found to be 0.217 nM at Bcl-2 and 29.2 nM in test [1] (RS4-11).

Consider `CC(C)(C)c1ccccc1[C@@H]1CCCN1C1CC2(CCN(c3ccc(C(=O)NS(=O)(=O)c4ccc(NCC5CCOCC5)c([N+](=O)[O-])c4)c(N4c5cc6cc[nH]c6nc5O[C@@H]5COC[C@H]54)c3)CC2)C1` [Example 46, 4-{2-[(2S)-2-(2-tert-butylphenyl)pyrrolidin-1-yl]-7-azaspiro[3.5]nonan-7-yl}-2-[(11R,15S)-13,16-dioxa-2,4,10-triazatetracyclo[7.7.0.0^{3,7}.0^{11,15}]hexadeca-1(9),2,5,7-tetraen-10-yl]-N-{3-nitro-4-[(oxan-4-ylmethyl)amino]benzenesulfonyl}benzamide], for which the values for the IC50 (on Bcl-2; in test [1]) were 0.398 nM and 58.2 nM, respectively.

As for `CC(C)Oc1ccccc1[C@@H]1CCCN1C1CC2(CCN(c3ccc(C(=O)NS(=O)(=O)c4ccc(NCC5CCOCC5)c([N+](=O)[O-])c4)c(N4c5cc6cc[nH]c6nc5O[C@H]5CCOC[C@@H]54)c3)CC2)C1` [Example 58, 4-(2-((S)-2-(2-isopropoxyphenyl)pyrrolidin-1-yl)-7-azaspiro[3.5]nonan-7-yl)-N-((3-nitro-4-(((tetrahydro-2H-pyran-4-yl)methyl)amino)phenyl)sulfonyl)-2-((5aS,9aS)-5a,8,9,9a-tetrahydro-6H-pyrano[4,3-b]pyrrolo[3′,2′:5,6]pyrido[3,2-e][1,4]oxazin-5(1H)-yl)benzamide], the values for the IC50 (at Bcl-2; in test [1] (RS4-11)) were 0.324 nM and 188 nM, respectively.

For the molecule `Cc1ccccc1[C@H]1COCCCN1C1CC2(CCN(c3ccc(C(=O)NS(=O)(=O)c4ccc(NCC5CCOCC5)c([N+](=O)[O-])c4)c(N4c5cc6cc[nH]c6nc5O[C@@H]5COC[C@H]54)c3)CC2)C1` [Example 66, 2-[(11R,15S)-13,16-dioxa-2,4,10-triazatetracyclo[7.7.0.0^{3,7}.0^{11,15}]hexadeca-1(9),2,5,7-tetraen-10-yl]-4-{2-[(3S)-3-(2-methylphenyl)-1,4-oxazepan-4-yl]-7-azaspiro[3.5]nonan-7-yl}-N-{3-nitro-4-[(oxan-4-ylmethyl)amino]benzenesulfonyl}benzamide], the IC50 on Bcl-2 turned out to be 0.564 nM; in test [1] it was 296 nM.

As for `CC(C)c1ccccc1[C@@H]1CCCN1C1CC2(CCN(c3ccc(C(=O)NS(=O)(=O)c4ccc(NCC5CCOCC5)c([N+](=O)[O-])c4)c(N4c5cc6cc[nH]c6nc5O[C@H]5COC[C@@H]54)c3)CC2)C1` [Example 2, 2-[(11S,15R)-13,16-dioxa-2,4,10-triazatetracyclo[7.7.0.0^[3,7].0^[11,15]]hexadeca-1(9),2,5,7-tetraen-10-yl]-4-[2-[(2S)-2-(2-isopropylphenyl)pyrrolidin-1-yl]-7-azaspiro[3.5]nonan-7-yl]-N-[3-nitro-4-[(oxan-4-ylmethyl)amino]benzenesulfonyl]benzamide], the IC50 worked out at 0.22 nM on Bcl-2 and 66.7 nM in test [1].

As to `C=C(C)c1ccccc1[C@@H]1CCCN1C1CC2(CCN(c3ccc(C(=O)NS(=O)(=O)c4ccc(NCC5CCOCC5)c([N+](=O)[O-])c4)c(N4c5cc6cc[nH]c6nc5O[C@@H]5COC[C@H]54)c3)CC2)C1` [Example 5, 2-[(11R,15S)-13,16-dioxa-2,4,10-triazatetracyclo[7.7.0.0^{3,7}.0^{11,15}]hexadeca-1(9),2,5,7-tetraen-10-yl]-N-{3-nitro-4-[(oxan-4-ylmethyl)amino]benzenesulfonyl}-4-{2-[(2S)-2-[2-(prop-1-en-2-yl)phenyl]pyrrolidin-1-yl]-7-azaspiro[3.5]nonan-7-yl}benzamide hydrochloride], the IC50 at Bcl-2 stood at 0.067 nM; in test [1], 9.5 nM.

`Cc1ccccc1[C@@H]1CCCN1C1CC2(CCN(c3ccc(C(=O)NS(=O)(=O)c4ccc(NCC5CCOCC5)c([N+](=O)[O-])c4)c(N4C[C@H]5CCOC[C@@H]5Oc5nc6[nH]ccc6cc54)c3)CC2)C1` [Example 68, 2-[(3R,8R)-2,5-dioxa-10,16,18-triazatetracyclo[9.7.0.0^{3,8}.0^{13,17}]octadeca-1(11),12,14,17-tetraen-10-yl]-4-{2-[(2S)-2-(2-methylphenyl)pyrrolidin-1-yl]-7-azaspiro[3.5]nonan-7-yl}-N-{3-nitro-4-[(oxan-4-ylmethyl)amino]benzenesulfonyl}benzamide]: the IC50 came to 0.303 nM on Bcl-2 and 40.7 nM in test [1].

As for `Cc1ccccc1[C@@H]1CCCN1C1CC2(CCN(c3ccc(C(=O)NS(=O)(=O)c4ccc(NCC5(F)CCOCC5)c([N+](=O)[O-])c4)c(N4c5cc6cc[nH]c6nc5O[C@@H]5COC[C@H]54)c3)CC2)C1` [Example 38, N-((4-(((4-fluorotetrahydro-2H-pyran-4-yl)methyl)amino)-3-nitrophenyl)sulfonyl)-2-((5aR,8aS)-5a,6,8,8a-tetrahydrofuro[3,4-b]pyrrolo[3′,2′:5,6]pyrido[3,2-e][1,4]oxazin-5(1H)-yl)-4-(2-((S)-2-(o-tolyl)pyrrolidin-1-yl)-7-azaspiro[3.5]nonan-7-yl)benzamide], the IC50 amounted to 0.202 nM on Bcl-2 and 13.6 nM in test [1] (RS4-11).

Turning to `CNc1ccccc1[C@@H]1CCCN1C1CC2(CCN(c3ccc(C(=O)NS(=O)(=O)c4ccc(NCC5CCOCC5)c([N+](=O)[O-])c4)c(N4c5cc6cc[nH]c6nc5O[C@@H]5COC[C@H]54)c3)CC2)C1` [Example 17, 2-[(11R,15S)-13,16-dioxa-2,4,10-triazatetracyclo[7.7.0.0^{3,7}.0^{11,15}]hexadeca-1(9),2,5,7-tetraen-10-yl]-4-{2-[(2S)-2-[2-(methylamino)phenyl]pyrrolidin-1-yl]-7-azaspiro[3.5]nonan-7-yl}-N-{3-nitro-4-[(oxan-4-ylmethyl)amino]benzenesulfonyl}benzamide], the IC50 was 0.225 nM on Bcl-2 and 99.5 nM in test [1].

Take `CCc1ccccc1[C@@H]1CCCN1C1CC2(CCN(c3ccc(C(=O)NS(=O)(=O)c4ccc(NCC5CCOCC5)c([N+](=O)[O-])c4)c(N4c5cc6cc[nH]c6nc5O[C@@H]5COC[C@H]54)c3)CC2)C1` [Example 7, 2-[(11R,15S)-13,16-dioxa-2,4,10-triazatetracyclo[7.7.0.0^{3,7}.0^{11,15}]hexadeca-1(9),2,5,7-tetraen-10-yl]-4-{2-[(2S)-2-(2-ethylphenyl)pyrrolidin-1-yl]-7-azaspiro[3.5]nonan-7-yl}-N-{3-nitro-4-[(oxan-4-ylmethyl)amino]benzenesulfonyl}benzamide hydrochloride]: the IC50 on Bcl-2 stood at 0.066 nM; in test [1], 11.5 nM.

Take `CC#Cc1ccccc1[C@@H]1CCCN1C1CC2(CCN(c3ccc(C(=O)NS(=O)(=O)c4ccc(NCC5CCOCC5)c([N+](=O)[O-])c4)c(N4c5cc6cc[nH]c6nc5O[C@@H]5COC[C@H]54)c3)CC2)C1` [Example 47, N-((3-nitro-4-(((tetrahydro-2H-pyran-4-yl)methyl)amino)phenyl)sulfonyl)-4-(2-((S)-2-(2-(prop-1-yn-1-yl)phenyl)pyrrolidin-1-yl)-7-azaspiro[3.5]nonan-7-yl)-2-((5aR,8aS)-5a,6,8,8a-tetrahydrofuro[3,4-b]pyrrolo[3′,2′:5,6]pyrido[3,2-e][1,4]oxazin-5(1H)-yl)benzamide]: the results for the IC50 (at Bcl-2; in test [1] (RS4-11)) were 0.307 nM and 288 nM, respectively.

`CC(C)Oc1ccccc1[C@@H]1CCCN1C1CC2(CCN(c3ccc(C(=O)NS(=O)(=O)c4ccc(NCC5CCOCC5)c([N+](=O)[O-])c4)c(N4c5cc6cc[nH]c6nc5O[C@H]5COCC[C@@H]54)c3)CC2)C1` [Example 67, 2-[(3R,8S)-2,5-dioxa-9,15,17-triazatetracyclo[8.7.0.0^{3,8}.0^{12,16}]heptadeca-1(10),11,13,16-tetraen-9-yl]-4-{2-[(2S)-2-(2-isopropoxyphenyl)pyrrolidin-1-yl]-7-azaspiro[3.5]nonan-7-yl}-N-{3-nitro-4-[(oxan-4-ylmethyl)amino]benzenesulfonyl}benzamide hydrochloride]: the half-maximal inhibitory concentration (IC50) on Bcl-2 (hydrochloride) came out at 0.229 nM; in test [1] (hydrochloride), 50.6 nM.

Broadly, the IC50 is the concentration at which inhibition is half-maximal.
